Literature values as cited in US20260140098A1, “METHOD FOR TREATING PLASMA SAMPLE CONTAINING (7aS,2'S)-2-OXO-CLOPIDOGREL AND METHOD FOR DETERMINING THE SAME” (CHENGDU SHIBEIKANG BIOMEDICAL TECHNOLOGY CO., LTD., priority 2021, published 2026).

How the values were obtained:
CYP2C19 = CYP2C19 (Homo sapiens, UniProt P33261); settings: by CYP2C19; cited from earlier work
CYP2B6 = CYP2B6 (Homo sapiens, UniProt P20813); settings: by CYP2B6; cited from earlier work
CYP1A2 = CYP1A2 (Homo sapiens, UniProt P05177); settings: by CYP1A2; cited from earlier work
Sequence of CYP1A2 (P05177 whole entry): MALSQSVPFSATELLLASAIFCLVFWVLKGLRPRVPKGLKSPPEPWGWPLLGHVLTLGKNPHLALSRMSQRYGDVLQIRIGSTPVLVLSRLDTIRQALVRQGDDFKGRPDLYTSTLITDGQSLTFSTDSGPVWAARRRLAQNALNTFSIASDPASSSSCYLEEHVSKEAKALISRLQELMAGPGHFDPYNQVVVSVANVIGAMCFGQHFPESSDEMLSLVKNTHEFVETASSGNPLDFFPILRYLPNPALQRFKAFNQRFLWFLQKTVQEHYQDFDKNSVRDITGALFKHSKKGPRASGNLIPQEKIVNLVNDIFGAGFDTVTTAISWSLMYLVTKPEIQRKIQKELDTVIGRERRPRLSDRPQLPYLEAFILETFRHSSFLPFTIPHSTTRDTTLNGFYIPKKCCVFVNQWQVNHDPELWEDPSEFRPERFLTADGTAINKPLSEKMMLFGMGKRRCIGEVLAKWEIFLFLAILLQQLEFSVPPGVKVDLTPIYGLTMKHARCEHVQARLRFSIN

Sequence of CYP2C19 (P33261 whole entry): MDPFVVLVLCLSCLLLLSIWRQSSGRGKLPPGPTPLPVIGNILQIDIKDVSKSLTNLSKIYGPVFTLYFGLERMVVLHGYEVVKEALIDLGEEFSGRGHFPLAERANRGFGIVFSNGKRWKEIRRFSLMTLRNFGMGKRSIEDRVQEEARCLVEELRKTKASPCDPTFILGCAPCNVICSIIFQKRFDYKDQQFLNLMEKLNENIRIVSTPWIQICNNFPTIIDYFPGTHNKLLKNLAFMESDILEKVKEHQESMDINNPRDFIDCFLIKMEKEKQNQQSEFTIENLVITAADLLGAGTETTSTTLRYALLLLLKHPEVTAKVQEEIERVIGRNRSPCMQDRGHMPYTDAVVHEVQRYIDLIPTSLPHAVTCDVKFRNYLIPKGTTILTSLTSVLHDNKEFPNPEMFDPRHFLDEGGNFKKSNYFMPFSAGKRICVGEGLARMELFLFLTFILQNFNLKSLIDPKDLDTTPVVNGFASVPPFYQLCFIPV
Sequence of CYP2B6 (P20813 whole entry): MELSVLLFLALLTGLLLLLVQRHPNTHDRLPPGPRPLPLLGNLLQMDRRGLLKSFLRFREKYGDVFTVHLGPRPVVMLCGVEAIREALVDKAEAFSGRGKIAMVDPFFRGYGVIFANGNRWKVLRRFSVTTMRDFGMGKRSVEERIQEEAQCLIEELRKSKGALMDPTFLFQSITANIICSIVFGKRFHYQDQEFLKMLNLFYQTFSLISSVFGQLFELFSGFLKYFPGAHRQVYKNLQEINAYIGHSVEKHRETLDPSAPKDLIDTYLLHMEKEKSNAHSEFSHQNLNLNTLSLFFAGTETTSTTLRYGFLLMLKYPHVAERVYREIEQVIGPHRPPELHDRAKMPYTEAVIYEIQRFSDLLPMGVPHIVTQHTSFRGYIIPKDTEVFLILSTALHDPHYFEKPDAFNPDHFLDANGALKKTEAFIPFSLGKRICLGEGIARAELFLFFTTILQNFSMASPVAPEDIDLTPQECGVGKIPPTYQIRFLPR

## COC(=O)[C@H](c1ccccc1Cl)N1CCc2sccc2C1 [clopidogrel]
CYP2C19
  Share of Phase I metabolism into inactive 2-oxo-clopidogrel: ~45%
CYP2B6
  Share of Phase I metabolism into inactive 2-oxo-clopidogrel: ~19%
CYP1A2
  Share of Phase I metabolism into inactive 2-oxo-clopidogrel: ~36%
